Tested on: secretion of cytokine IL-8 into the human monocyte cell line THP-1
Experiment: inhibition of LPS-triggered IL-8 secretion in THP-1 cells (ELISA of supernatant)
Type: cell-based
Protocol: As an essential, molecular mechanism for the anti-inflammatory action of glucocorticoids, the GR-mediated inhibition of the transcription of cytokines, adhesion molecules, enzymes and other pro-inflammatory factors is considered. This inhibition is produced by an interaction of the GR with other transcription factors, e.g., AP-1 and NF-kappa-B (for a survey, see Cato, A. C. B., and Wade, E., BioEssays 18, 371-378, 1996).
The concentration of the cytokines was determined in the supernatant by means of commercially available ELISA kits.

COCC(O)(C(Nc1cc(F)cc2c1ccc(=O)n2-c1ccc(F)nc1)c1ccc(OC)c(F)c1Cl)C(F)(F)F (centres unmarked) [Example 2, 5-{[1-(2-Chloro-3-fluoro-4-methoxyphenyl)-3,3,3-trifluoro-2-hydroxy-2-(methoxymethyl)propyl]amino}-7-fluoro-1-(6-fluoropyridin-3-yl)-1H-quinolin-2-one] was tested. Which IC50 (Homo sapiens, inhibition of LPS-triggered IL-8 secretion, THP-1 cells, read-out: IC50(IL8)) did it give?
The IC50 was 0.31 nM.

What about the efficacy (IL-8 inhibition, in comparison with dexamethasone as reference) of the same compound?
The efficacy was 107%.

— patent EP2149558A1, “5-[(3,3,3-Trifluoro-2-hydroxy-1-arylpropyl)amino-1-arylquinolin-2-ones, a process for their production and their use as anti-inflammatory agents” (Bayer Schering Pharma Aktiengesellschaft, priority 2008, dated 2010)
